Columns and labels:
[1] = molecular target: T1, human TLR7 (Homo sapiens, UniProt Q9NYK1); assay: Human TLR7 reporter gene assay (Test 1); format: cell-based; settings: half-maximal SEAP induction, TLR7/NF-κB/SEAPorter HEK293 cell line, overnight 37° C., 0.1% DMSO
T1 construct: expresses full-length human TLR7 and secretory alkaline phosphatase (SEAP) reporter gene; host or cells: TLR7/NF-κB/SEAPorter HEK293 cell line
T1 sequence (Q9NYK1 27-1049): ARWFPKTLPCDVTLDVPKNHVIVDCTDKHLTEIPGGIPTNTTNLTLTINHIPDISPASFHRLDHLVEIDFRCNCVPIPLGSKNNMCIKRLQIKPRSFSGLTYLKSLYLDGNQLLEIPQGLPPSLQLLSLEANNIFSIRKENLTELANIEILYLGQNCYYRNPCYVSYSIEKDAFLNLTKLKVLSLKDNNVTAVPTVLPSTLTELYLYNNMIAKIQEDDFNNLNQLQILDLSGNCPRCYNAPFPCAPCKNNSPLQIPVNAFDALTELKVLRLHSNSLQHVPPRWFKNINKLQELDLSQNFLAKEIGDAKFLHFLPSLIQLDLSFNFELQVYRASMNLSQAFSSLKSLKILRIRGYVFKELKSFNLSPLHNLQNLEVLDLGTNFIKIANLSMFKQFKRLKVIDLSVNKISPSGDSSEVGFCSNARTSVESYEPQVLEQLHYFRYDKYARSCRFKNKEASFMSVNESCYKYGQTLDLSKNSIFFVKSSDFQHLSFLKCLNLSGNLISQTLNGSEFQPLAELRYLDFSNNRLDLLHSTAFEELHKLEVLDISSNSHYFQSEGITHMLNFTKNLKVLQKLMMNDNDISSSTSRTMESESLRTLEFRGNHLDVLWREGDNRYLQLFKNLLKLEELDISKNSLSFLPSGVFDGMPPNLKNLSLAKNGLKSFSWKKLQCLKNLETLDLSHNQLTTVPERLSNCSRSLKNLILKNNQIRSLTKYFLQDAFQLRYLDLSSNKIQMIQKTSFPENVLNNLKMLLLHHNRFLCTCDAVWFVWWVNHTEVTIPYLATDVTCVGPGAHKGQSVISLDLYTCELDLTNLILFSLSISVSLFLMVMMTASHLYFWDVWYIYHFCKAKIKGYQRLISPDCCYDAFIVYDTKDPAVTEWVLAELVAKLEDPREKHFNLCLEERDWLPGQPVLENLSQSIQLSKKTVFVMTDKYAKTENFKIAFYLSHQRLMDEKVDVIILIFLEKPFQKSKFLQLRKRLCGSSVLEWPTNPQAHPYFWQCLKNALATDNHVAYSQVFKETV
Text: TLR7/NF-κB/SEAPorter™ HEK293 cell line (Imgenex Corporation) is a stably co-transfected cell line which expresses full-length human TLR7 and secretory alkaline phosphatase (SEAP) reporter gene under the transcriptional regulation of an NF-κB response element. The TLR7 expression of the cell line has been already tested by flow cytometry. Transfectants with stable expression were selected using the antibiotic blasticidin and Geneticin. TLR signaling leads to the translocation of NF-κB and the activation of the promoter results in expression of the SEAP gene. TLR7-specific activation was assessed by determining the level of SEAP produced following overnight incubation of the cells at 37° C. with each compound prepared in Examples and Reference examples in the presence of 0.1% (v/v) dimethylsulfoxide (DMSO). The human TLR7 activity for the present compound was assessed by human TLR7 reporter gene assay, and the results are shown in Tables 6 and 7 as the compound concentration which produced half of the maximal level of SEAP induction (EC50).

[2] = molecular target: T2, mouse TLR7 (Mus musculus, UniProt P58681); assay: Mouse TLR7 reporter gene assay (Test 2); format: cell-based; settings: half-maximal SEAP induction, HEK-Blue mTLR7 cell line, overnight 37° C., 0.1% DMSO
T2 construct: expresses full-length mouse TLR7 and secretory SEAP reporter gene; host or cells: HEK-Blue mTLR7 cell line
T2 sequence (P58681 27-1050): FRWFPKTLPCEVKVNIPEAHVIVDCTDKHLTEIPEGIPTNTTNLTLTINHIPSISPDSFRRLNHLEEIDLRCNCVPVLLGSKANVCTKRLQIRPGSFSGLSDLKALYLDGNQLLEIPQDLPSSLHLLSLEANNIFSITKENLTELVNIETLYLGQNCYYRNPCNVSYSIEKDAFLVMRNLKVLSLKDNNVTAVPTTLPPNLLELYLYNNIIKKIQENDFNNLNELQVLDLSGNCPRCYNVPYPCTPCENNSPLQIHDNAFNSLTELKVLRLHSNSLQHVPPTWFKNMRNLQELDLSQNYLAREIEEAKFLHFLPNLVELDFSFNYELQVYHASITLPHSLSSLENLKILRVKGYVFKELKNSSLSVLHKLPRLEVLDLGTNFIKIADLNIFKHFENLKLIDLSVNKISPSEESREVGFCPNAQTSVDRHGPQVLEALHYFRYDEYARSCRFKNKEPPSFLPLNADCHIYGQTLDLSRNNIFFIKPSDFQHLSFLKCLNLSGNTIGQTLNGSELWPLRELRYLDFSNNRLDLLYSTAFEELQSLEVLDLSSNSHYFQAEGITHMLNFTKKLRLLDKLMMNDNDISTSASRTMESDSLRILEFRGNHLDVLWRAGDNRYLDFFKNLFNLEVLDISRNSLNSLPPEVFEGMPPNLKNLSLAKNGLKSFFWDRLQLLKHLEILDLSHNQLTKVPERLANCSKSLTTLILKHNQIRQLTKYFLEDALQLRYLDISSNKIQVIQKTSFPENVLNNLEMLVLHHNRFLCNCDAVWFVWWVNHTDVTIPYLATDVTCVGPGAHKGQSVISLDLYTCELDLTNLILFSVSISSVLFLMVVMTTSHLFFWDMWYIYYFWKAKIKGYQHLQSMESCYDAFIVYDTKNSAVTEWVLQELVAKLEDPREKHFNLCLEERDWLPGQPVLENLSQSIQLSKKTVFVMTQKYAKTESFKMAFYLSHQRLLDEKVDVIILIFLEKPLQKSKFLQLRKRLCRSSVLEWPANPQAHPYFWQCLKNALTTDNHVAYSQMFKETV
Text: HEK-Blue™ mTLR7 cell line (Invivogen) is a stably co-transfected cell line which expresses full-length mouse TLR7 and secretory SEAP reporter gene under the transcriptional regulation of an NF-κB response element. The TLR7 expression of the cell line has been already tested by RT-PCR. Transfectants with stable expression were selected using the antibiotic blasticidin and Zeocin. TLR signaling leads to the translocation of NF-κB and the activation of the promoter results in expression of the SEAP gene. TLR7-specific activation was assessed by determining the level of SEAP produced following overnight incubation of the cells at 37° C. with each compound prepared in Examples and Reference examples in the presence of 0.1% (v/v) DMSO. The mouse TLR7 activity for the present compound was assessed by mouse TLR7 reporter gene assay, and the results are shown in Tables 8 and 9 as the compound concentration which produced half of the maximal level of SEAP induction (EC50).

| SMILES | EC50 ([1]; Table 7, Reference examples) [nM] | EC50 ([2]; Table 9, Reference examples) [nM] | EC50 ([1]; Table 6, Examples) [nM] | EC50 ([2]; Table 8, Examples) [nM] |
| --- | --- | --- | --- | --- |
| CCCCOc1nc(N)c2[nH]c(=O)n(Cc3ccc(CNC)cc3)c2n1 [Reference example 14, reference compound] | 12 | 23 |  |  |
| CCCCOc1nc(N)c2[nH]c(=O)n(Cc3ccc(CN(C)CCOCCOCCOCCOCCO)cc3)c2n1 [Example 3, 6-amino-2-butoxy-9-{[4-(16-hydroxy-2-methyl-5,8,11,14-tetraoxa-2-azahexadecan-1-yl)phenyl]methyl}-7,9-dihydro-8H-purin-8-one] |  |  | 24 | 42 |
| CCCCOc1nc(N)c2[nH]c(=O)n(Cc3ccc(CN(C)CCOCCOCCOCCOCCO)nc3)c2n1 [Example 2, 6-amino-2-butoxy-9-{[6-(16-hydroxy-2-methyl-5,8,11,14-tetraoxa-2-azahexadecan-1-yl)pyridin-3-yl]methyl}-7,9-dihydro-8H-purin-8-one-trifluoroacetate] |  |  | 774 | 510 |
| CCCCOc1nc(N)c2[nH]c(=O)n(Cc3ccc(CNC)nc3)c2n1 [Reference example 12, reference compound] | 578 | 251 |  |  |

From patent publication US20220241409A1, “WATER SOLUBLE ADJUVANT AND COMPOSITION CONTAINING SAME” (Sumitomo Dainippon Pharma Co., Ltd., priority 2019, published 2022)
